For 49 molecules, IC50 results are on record in patent publication US10532985B2, “Heterocycle and carbocycle derivatives having TRKA inhibitory activity” (Shionogi & Co., Ltd., priority 2014, dated 2020).

SMILES strings stand for the structures.

The target in one test is T1, human TrkA (Homo sapiens, UniProt P04629).
T1 construct: purchased Lifetechnologies PV3144
T1 sequence (P04629 33-796): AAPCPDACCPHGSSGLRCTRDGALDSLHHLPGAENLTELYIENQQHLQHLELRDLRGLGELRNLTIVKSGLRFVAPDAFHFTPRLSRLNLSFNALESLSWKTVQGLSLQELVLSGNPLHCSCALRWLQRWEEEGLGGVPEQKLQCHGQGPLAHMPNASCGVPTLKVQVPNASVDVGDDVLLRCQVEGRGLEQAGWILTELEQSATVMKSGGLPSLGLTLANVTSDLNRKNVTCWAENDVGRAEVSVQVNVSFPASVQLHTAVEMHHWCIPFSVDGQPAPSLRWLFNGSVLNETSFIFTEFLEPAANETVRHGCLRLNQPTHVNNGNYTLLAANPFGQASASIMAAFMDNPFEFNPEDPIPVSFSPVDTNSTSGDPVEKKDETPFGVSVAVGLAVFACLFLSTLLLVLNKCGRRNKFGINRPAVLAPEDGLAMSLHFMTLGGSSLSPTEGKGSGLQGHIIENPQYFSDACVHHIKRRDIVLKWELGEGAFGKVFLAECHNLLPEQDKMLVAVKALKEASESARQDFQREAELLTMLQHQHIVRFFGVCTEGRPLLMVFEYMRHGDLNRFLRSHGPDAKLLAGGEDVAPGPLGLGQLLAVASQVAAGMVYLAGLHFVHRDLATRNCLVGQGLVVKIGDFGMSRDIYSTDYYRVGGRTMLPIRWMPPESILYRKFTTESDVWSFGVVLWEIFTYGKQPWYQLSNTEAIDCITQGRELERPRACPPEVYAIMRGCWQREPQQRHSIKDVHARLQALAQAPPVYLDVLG
Put plainly: Test Example 2: Human TrkA Inhibition Assay. Type of test: biochemical.
Conditions: not given
Here is the method:
After the incubation for 90 min at room temperature, ten μL of termination buffer (100 mmol/L HEPES, 40 mmol/L ethylenediaminetetraacetic acid (EDTA), 10 mmol/L magnesium chloride, 0.003 vol % Brij-35, 0.004 vol % Tween20, 1 mmol/L DTT and 0.16 vol % Coating Reagent 3) was added in each well to stop the enzyme reaction. Fluorescent intensities (FI) of phosphorylated and non-phosphorylated fluorescent substrates were measured by LabChip EZReader II (Caliper LifeSciences, Inc.) and conversion ratio (CR) was calculated by the following formula-1. The CR in the well applied with DMSO alone was used as a negative control and the CR in the well without applying TrkA was used as a positive control. The inhibitory effect of each compound on TrkA phosphorylation was calculated by the following formula-2. CR (%)=(FI of phosphorylated substrate/(FI of phosphorylated substrate+FI of non-phosphorylated substrate))×100 (Formula-1) Inhibitory effect on TrkA phosphorylation (%)=(1−(CR in compound treated well−CR in positive control)/(CR in negative control−CR in positive control))×100. (Formula-2)
`Cc1c(-c2cnn(C)c2)nn(-c2ccccc2)c1NC(=O)N[C@H]1[C@H](c2ccc(F)c(F)c2)[C@@H]2CC[C@H]1N2Cc1csnn1` (racemic) [Compound I-71] showed an IC50 of 0.3 µM.

The same test, now with this note: Test Example 2; human TrkA 2.5 nmol/L, ATP 500 μmol/L, 90 min at room temperature; read-out: TrkA inhibitory activity IC50.
`Cc1c(-c2cnn(C)c2)nn(-c2ccccc2)c1NC(=O)N[C@@H]1CN(CC(F)(F)F)C(=O)[C@H]1c1ccccc1` (racemic) [Compound I-44]: the IC50 is 0.7 µM.
Turning to `COCC(CC#N)N1C[C@@H](NC(=O)Nc2c(C)c(-c3cnn(C)c3)nn2-c2ccccc2)[C@H](c2ccc(F)c(F)c2)C1` (stereo partly shown) [Compound I-93], the IC50 was 0.021 µM.
For the molecule `Cc1c(-c2cnn(C)c2)nn(-c2ccccc2)c1NC(=O)N[C@@H]1CC2(CC(=O)C2)C[C@H]1c1ccccc1` (racemic) [Compound I-157], the IC50 turned out to be 3.3 µM.
Turning to `COCCN1C[C@@H](NC(=C[N+](=O)[O-])Nc2c(C)c(-c3cnn(C)c3)nn2-c2ccccc2)[C@H](c2ccccc2)C1` [Compound I-146], the IC50 was determined as 1.8 µM.

The test is the same for the next values; noted with them: human TrkA inhibition, Test Example 2; class symbols A/B/C; read-out: IC50_nM.
In the case of `COC(=O)NCCN1C[C@@H](NC(=O)Nc2c(C)c(-c3cnn(C)c3)nn2-c2ccccc2)[C@H](c2ccc(F)c(F)c2)C1` [Compound I-41], the IC50 is > 1 µM.
For `Cc1c(-c2cnn(C)c2)nn(-c2ccccc2)c1NC(=O)N[C@@H]1CN(Cc2nccn2C2CC2)C[C@H]1c1ccc(F)c(F)c1` [Compound I-147], the IC50 was > 1 µM.
Regarding `CCOC(=O)CC1C[C@@H](NC(=O)Nc2c(C)c(-c3cnn(C)c3)nn2-c2ccccc2)[C@H](c2ccccc2)C1` (stereo partly shown) [Compound I-124], the IC50 is 0.1 to 1 µM.
Regarding `Cc1c(-c2cnn(C)c2)nn(-c2ccccc2)c1NC(=O)N[C@@H]1CN(C(CO)c2ccco2)C[C@H]1c1ccc(F)c(F)c1` (stereo partly shown) [Compound I-108], the IC50 was < 0.1 µM.
Same read-out and setting: next, `COCCN1C[C@@H](NC(=O)C(O)c2c(C)c(-c3cnn(C)c3)nn2-c2ccccc2)[C@H](c2ccc(F)c(F)c2)C1` (stereo partly shown) [Compound I-79]: 0.1 to 1 µM.
In the case of `COCC(CC(=O)OC)N1C[C@@H](NC(=O)Nc2c(C)c(-c3cnn(C)c3)nn2-c2ccccc2)[C@H](c2ccc(F)c(F)c2)C1` (stereo partly shown) [Compound I-117], the IC50 is 0.1 to 1 µM.
In the case of `COCCN1C[C@@H](NC(=O)N(C)c2c(C)c(-c3cnn(C)c3)nn2-c2ccccc2)[C@H](c2ccc(F)c(F)c2)C1` [Compound I-32], the IC50 was > 1 µM.
On to `COCCN1C[C@@H](NC(=O)Nc2c(C)c(-c3cnn(C)c3)nn2-c2ccccc2)[C@H](c2cccc(-c3ccccc3)c2)C1` (racemic) [Compound I-48], for which the IC50 was < 0.1 µM.
With `Cc1c(-c2cnn(C)c2)nn(-c2ccccc2)c1NC(=O)N[C@@H]1CN(C2CCCCC2)C[C@H]1c1ccc(F)c(F)c1` [Compound I-143], the IC50 is > 1 µM.
Same read-out and setting: to `Cc1c(-c2cnn(C)c2)nn(-c2ccccc2)c1NC(=O)N[C@@H]1CN(CCNS(C)(=O)=O)C[C@H]1c1ccc(F)c(F)c1` [Compound I-42] belongs 0.1 to 1 µM; to `COCC(C(N)=O)N1C[C@@H](NC(=O)Nc2c(C)c(-c3cnn(C)c3)nn2-c2ccccc2)[C@H](c2ccc(F)c(F)c2)C1` (stereo partly shown) [Compound I-116], 0.1 to 1 µM; to `COCC(C(N)=O)N1C[C@@H](NC(=O)Nc2c(C)c(-c3cnn(C)c3)nn2-c2ccccc2)[C@H](c2ccc(F)c(F)c2)C1` (stereo partly shown) [Compound I-133], 0.1 to 1 µM.
Still for that read-out and setting: next, `CCOC1CC(N2C[C@@H](NC(=O)Nc3c(C)c(-c4cnn(C)c4)nn3-c3ccccc3)[C@H](c3ccc(F)c(F)c3)C2)C1` (stereo partly shown) [Compound I-160]: > 1 µM; `Cc1c(-c2cnn(C)c2)nn(-c2ccccc2)c1NC(=O)N[C@@H]1CN(C2CCCC2)C[C@H]1c1ccc(F)c(F)c1` [Compound I-166]: > 1 µM.
In the case of `COCCC1C[C@@H](NC(=O)Nc2c(C)c(-c3cnn(C)c3)nn2-c2ccccc2)[C@H](c2ccccc2)C1` (stereo partly shown) [Compound I-88], the IC50 was < 0.1 µM.
Turning to `COCCN1C[C@@H](NC(=O)Nc2c(C)c(-c3cnn(C)c3)nn2-c2ccccc2)[C@H](c2cccc(/C=C/c3ccccc3)c2)C1` (racemic) [Compound I-49], the IC50 was < 0.1 µM.
The same measure, in the same setting: next, `COCCN1C[C@@H](NC(=O)Nc2c(C)c(-c3cnn(C)c3)nn2-c2ccccc2)[C@H](c2cccc(C(N)=O)c2)C1` (racemic) [Compound I-21]: > 1 µM; `COCC(CNC(=O)OC)N1C[C@@H](NC(=O)Nc2c(C)c(-c3cnn(C)c3)nn2-c2ccccc2)[C@H](c2ccc(F)c(F)c2)C1` (stereo partly shown) [Compound I-139]: 0.1 to 1 µM.
On the same count and under the same terms, to `COCCN1C[C@@H](NC(=O)Nc2c(C)c(-c3cnn(C)c3)nn2-c2ccccc2)[C@H](c2ccc3nccn3c2)C1` (racemic) [Compound I-165] belongs > 1 µM; to `COCC(CNC(C)=O)N1C[C@@H](NC(=O)Nc2c(C)c(-c3cnn(C)c3)nn2-c2ccccc2)[C@H](c2ccc(F)c(F)c2)C1` (stereo partly shown) [Compound I-112], 0.1 to 1 µM; to `Cc1c(-c2cnn(C)c2)nn(-c2ccccc2)c1NC(=O)N[C@@H]1CN(S(C)(=O)=O)C[C@H]1c1ccc(F)c(F)c1` [Compound I-45], > 1 µM.
Consider `Cc1c(-c2cnn(C)c2)nn(-c2ccccc2)c1NC(=O)N[C@@H]1CN(Cc2ccccc2)C[C@H]1C1CCCCC1` (racemic) [Compound I-18], for which the IC50 was > 1 µM.
Turning to `COCCC1C[C@H](NC(=O)Nc2c(C)c(-c3cnn(C)c3)nn2-c2ccccc2)[C@@H](c2ccccc2)C1` (stereo partly shown) [Compound I-123], the IC50 was in the range of 0.1 to 1 µM.
`COCCN1C[C@@H](NC(=O)Nc2c(C)c(OCC(C)(C)O)nn2-c2ccccc2)[C@H](C2CCCCC2)C1` (racemic) [Compound I-10]: the IC50 was > 1 µM.
Take `Cc1c(-c2cnn(C)c2)nn(-c2ccccc2)c1NC(=O)N[C@@H]1CN(Cc2cscn2)C[C@H]1c1ccc(F)c(F)c1` [Compound I-90]: the IC50 is < 0.1 µM.
Take `COCCN1C[C@@H](NC(=O)Nc2c(C)c(OCC(C)(C)O)nn2-c2ccccc2)[C@H](C2CCC(F)(F)CC2)C1` (racemic) [Compound I-34]: the IC50 is > 1 µM.
As to `Cc1c(-c2cnn(C)c2)nn(-c2ccccc2)c1NC(=O)N[C@@H]1CN(Cc2nccs2)C[C@H]1c1ccc(F)c(F)c1` [Compound I-97], the IC50 was < 0.1 µM.
On the same count and under the same terms, to `Cc1c(-c2cnn(C)c2)nn(-c2ccccc2)c1NC(=O)N[C@H]1[C@H](c2ccc(F)c(F)c2)[C@@H]2CC[C@H]1N2` (racemic) [Compound I-68] belongs > 1 µM.
Regarding `COCCN1C[C@@H](NC(=O)Nc2c(C)c(-c3cnn(C)c3)nn2-c2ccccc2)[C@H](c2ccc3c(c2)OCCO3)C1` (racemic) [Compound I-128], the IC50 is 0.1 to 1 µM.
`Cc1c(-c2cnn(C)c2)nn(-c2ccccc2)c1NC(=O)N[C@@H]1CN(C(=O)OC(C)(C)C)C[C@H]1c1ccccc1` (racemic) [Compound I-5]: the IC50 was > 1 µM.
The same measure, in the same setting: to `COCCN1C[C@@H](NC(=O)Nc2c(C)c(-c3cnn(C)c3)nn2-c2ccccc2)[C@H](c2cccc(-c3ccncc3)c2)C1` (racemic) [Compound I-60] belongs > 1 µM.
Same read-out and setting: to `Cc1c(-c2cnn(C)c2)nn(-c2ccccc2)c1NC(=O)N[C@@H]1C[C@@H](C)N(C(=O)OC(C)(C)C)[C@H]1c1ccc(F)c(F)c1` (racemic) [Compound I-76] belongs > 1 µM; to `COCC(CN(C)C)N1C[C@@H](NC(=O)Nc2c(C)c(-c3cnn(C)c3)nn2-c2ccccc2)[C@H](c2ccc(F)c(F)c2)C1` (stereo partly shown) [Compound I-115], 0.1 to 1 µM.
As for `COC1CC2(C1)C[C@@H](NC(=O)Nc1c(C)c(-c3cnn(C)c3)nn1-c1ccccc1)[C@H](c1ccccc1)C2` (mixture of isomers) [Compound I-170], the IC50 was > 1 µM.
On the same count and under the same terms, to `COCCC1C[C@@H](NC(=O)Nc2c(C)c(-c3cnn(C)c3)nn2-c2ccccc2)[C@H](c2ccccc2)C1` (stereo partly shown) [Compound I-85] belongs < 0.1 µM.
Consider `COCCN1C[C@@H](NC(=O)Nc2c(C)c(-c3cnn(C)c3)nn2-c2ccccc2)[C@H](c2cc3ccccc3o2)C1` (racemic) [Compound I-134], for which the IC50 was in the range of 0.1 to 1 µM.
For `COCCN1[C@@H]2CCC[C@H]1[C@@H](c1ccc(F)c(F)c1)[C@@H]2NC(=O)Nc1c(C)c(-c2cnn(C)c2)nn1-c1ccccc1` (racemic) [Compound I-12], the IC50 was > 1 µM.
On to `COCC(CNOC)N1C[C@@H](NC(=O)Nc2c(C)c(-c3cnn(C)c3)nn2-c2ccccc2)[C@H](c2ccc(F)c(F)c2)C1` (stereo partly shown) [Compound I-113], for which the IC50 fell in the range of 0.1 to 1 µM.
For `COCCN1C[C@@H](NC(=O)Nc2c(C)c(-c3cnn(C)c3)nn2-c2ccccc2)[C@H](c2cccc(-c3ccc(C#N)s3)c2)C1` (racemic) [Compound I-53], the IC50 was > 1 µM.
For the molecule `COCC(C(=O)N(C)C)N1C[C@@H](NC(=O)Nc2c(C)c(-c3cnn(C)c3)nn2-c2ccccc2)[C@H](c2ccc(F)c(F)c2)C1` (stereo partly shown) [Compound I-174], the IC50 is > 1 µM.
Regarding `COCCN1C[C@@H](NC(=O)Nc2c(C)c(-c3cnn(C)c3)nn2-c2ccccc2)[C@H](c2ccc3c(c2)NCCO3)C1` (racemic) [Compound I-162], the IC50 was > 1 µM.
The same measure, in the same setting: to `COCCN1C[C@@H](N(C)C(=O)Nc2c(C)c(-c3cnn(C)c3)nn2-c2ccccc2)[C@H](c2ccccc2)C1` (racemic) [Compound I-17] belongs > 1 µM; to `COCCOCCN1C[C@@H](NC(=O)Nc2c(C)c(-c3cnn(C)c3)nn2-c2ccccc2)[C@H](c2ccc(F)c(F)c2)C1` [Compound I-81], 0.1 to 1 µM; to `COCCN1C[C@@H](NC(=O)Nc2c(C)c(-c3cnn(C)c3)nn2-c2ccccc2)[C@H](c2cccc(C(=O)O)c2)C1` (racemic) [Compound I-82], > 1 µM.
